Laboratory results: US20070254903A1, “Novel Spiroindoline or Spiroisoquinoline Compounds, Methods of Use and Compositions Thereof” (ARENA PHARMACEUTICALS, INC., priority 2003, published 2007)

Columns and labels:
[1] = system: isolated adult rat hearts; experiment: Ischemia-Reperfusion Assay 1 (Langendorff apparatus); settings: 10 μM; 30 min ischemia, 30 min reperfusion; compared to vehicle; FIG. 2
Protocol: Male Sprague-Dawley rats (300-350 g body weight) were anesthetized with pentobarbital sodium (50 mg/kg IP) then heparin (400 IU IP) was administered 10 minutes prior to surgery. The chest wall was opened and the heart was rapidly excised and immediately placed into ice-cold Krebs-Henseleit (KH) buffer (118 mM NaCl, 4.7 mM KCl, 1.2 mM MgSO4, 1.2 mM KH2PO4, 1.5 mM CaCl2, 25 mM NaHCO3, 11 mM glucose, 1 mM pyruvate, and 0.005 mM EDTA) to produce cardiac arrest. The aorta was then cannulated and the heart retrogradely perfused with KH buffer maintained at 37° C. in a reservoir bubbled with 95% O2/5% CO2 (pH7.4) on the Langendorff apparatus at a constant pressure of 80 mmHg. Myocardial temperature was maintained at 37° C. by partially submerging the heart into a water-jacketed chamber filled with KH buffer. A water filled latex balloon attached to a metal cannula and inserted into the left ventricle via the mitral valve and connected to a pressure transducer (Powerlab, ADInstruments, Inc) was used for measurement of left ventricular pressure. The balloon was initially inflated to an end-diastolic pressure of 10 mmHg. […] The difference between peak-systolic and end diastolic pressures, or left ventricular developed pressure (LVDP) was calculated as an index of contractile function and measured just prior to ischemia and at the end of reperfusion. […]

human Mas receptor = molecular target: T1, human Mas receptor (Homo sapiens, UniProt P04201); experiment: Mas receptor IP3 assay (inverse agonist assay); format: cell-based
T1 construct: expressed in transfected cells
T1 sequence (P04201 1-325): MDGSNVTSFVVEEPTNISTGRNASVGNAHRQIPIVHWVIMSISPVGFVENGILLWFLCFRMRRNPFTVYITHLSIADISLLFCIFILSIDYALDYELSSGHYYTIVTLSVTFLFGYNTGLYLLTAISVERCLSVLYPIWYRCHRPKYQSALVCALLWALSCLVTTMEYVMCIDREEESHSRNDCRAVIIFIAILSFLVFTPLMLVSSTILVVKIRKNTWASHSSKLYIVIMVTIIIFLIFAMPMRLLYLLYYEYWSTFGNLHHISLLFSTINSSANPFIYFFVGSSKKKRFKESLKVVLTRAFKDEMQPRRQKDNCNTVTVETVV
Protocol: The Mas receptor IP3 assay was performed using a mammalian cell line (HEK293) which was transfected with a plasmid containing the human Mas receptor and selected for stable expression of the receptor. For the inverse agonist assay, higher levels of Mas receptor constitutive activity were desired. To achieve this, Mas receptor expression levels were increased by transiently transfecting the same Mas receptor stable cell line with additional human Mas receptor plasmid DNA following standard procedures. These cells were used in the Mas receptor IP3 assay approximately 24 hours post-transfection.
Cells were split into 96-well plates (50,000 cells/well) and allowed to attach for a period of 6 hours. The growth medium was then replaced with medium supplemented with 4 μCi/ml [^3H]myo-inositol (100 μl; Perkin Elmer Life Sciences) and the cells were allowed to incubate for approximately 20 hours. Test compounds were serially diluted in inositol-free media containing 10 mM LiCl. The media in the plates was removed by aspiration, replaced with these test compound solutions and incubated at 37° C. for 1 hour. Following this incubation, the media was removed by aspiration and replaced with buffer containing 0.1M formic acid. The plates were then frozen overnight at −80° C. to achieve complete cell lysis.
The following day, the assay plates were thawed at room temperature. The thawed contents were then transfered to 96-well filter plates (Millipore, Multiscreen) pre-loaded with resin (Biorad, AG1-X8 100-200 mesh, formate form). The plate was filtered using a vacuum manifold and the resin was washed multiple times with water. An elution buffer was then applied (200 μl, 0.2M Ammonium formate/0.1M formic acid) and the resulting eluent was collected, under vacuum, in a 96-well collection plate. Aliquots of the eluent (80 μl) were transferred to filter plates (Whatman, Unifilter GF/C) and dried in a 45° C. oven overnight. Dried plates were counted on a scintillation counter following the addition of an appropriate scintillant (Perkin Elmer Life Sciences, Optiphase Supermix or Hi-Safe 3).

rats = experiment: Measurement of blood pressure in rats (telemetry); format: in vivo, rat; settings: conscious rats, IP injection, about 120 minutes after injection; FIG. 6
Protocol: Cardiac parameters were measured by small transmitting devices, (Data Sciences PhysioTel Telemetry devices), implanted in rats. The implanted transmitting devices were used to measure blood pressure in freely moving conscious animals. There are no external connections or tethering devices that can inhibit animal movement and induce unnecessary stress, which can affect the outcome of a study.
This procedure was performed under modified aseptic conditions. Rats were anesthetized with Isoflurane gas that ranged in concentration from 1.5-2.0%. A cardiac telemetry device was implanted into the peritoneal cavity with a pressure sensing catheter situated no more than 2 cm inside the descending aorta. This was accomplished as follows: The rat was shaved and the incision site was prepared with an iodine solution. The rat was then placed on a heating pad to maintain a constant body temp of 38±0.5° C., and covered with a sterile drape. A 6 cm midline abdominal incision was made to provide access to the implantation area. […] The rats were monitored for 7 days to ensure proper recovery.
On the test day, injections with either vehicle or with test compound were administered via IP injection in volumes of ˜250 μl. Animals were monitored with a resolution of approximately one measurement/min for 60 minutes before injection of vehicle or compound and for about 120 minutes after injection.

## C=CCN1CCC2(CC1)CN(C(=O)c1cccc(F)c1F)c1ccc(F)cc12 [Compound 75, 1′-(allyl)-1,2-dihydro-5-fluoro-1-(2,3-difluoro-benzoyl)-spiro[3H-indole-3,4′-piperidine]]
[1]
  percent recovery of left ventricle function: significant increase in percent recovery of left ventricle function
Human Mas receptor; HEK293 cells over-expressing human Mas receptor, average from several experiments
  IC50: 298 nM
Human Mas receptor; representative experiment, FIG. 1
  IC50: 225 nM
rats
  blood pressure change: did not result in a significant change in blood pressure
